Common to all, as to assay: growth of human tumour cells (NCI), 48 h
The test system of assay [1] is UACC-257 melanoma.
The test system of assay [2] is MDA-MB-231 breast.
In assay [3] the test system is SK-OV-3 ovarian.
Assay [4] concerns 786-0 renal.
Assay [5] concerns A498 renal.
The test system of assay [6] is SW-620 colon.
Assay [7] relates to KM12 colon.
Assay [8] deals with NCI/ADR-RES ovarian.
Assay [9] concerns RPMI-8226 leukemia.
Assay [10] relates to OVCAR-5 ovarian.

Several values for one entry are separate records, joined by “and”; a condition that tells them apart may be missing. Equal values may be shown once.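 Following 48 hours of exposure in 96-well plates, responses at five concentrations were used to interpolate endpoints linearly. GI50 = concentration required for 50% inhibition of growth. The concentration for full growth arrest is given as TGI.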 *1 amine or outer side, *2 acyl side, *3 side chain or, on linkers, in order; H or OH if unused. Where a SMILES comes first, the peptide text is derived from it. Bridges are numbered along the chain shown (N, C = ends). Roman numbers before positions name the chains, in order. [ ]: non-standard residue; d: D form. Actinocin(9to1) = Cc1c2oc3c(C)ccc(C(=O)[*:1])c3nc-2c(C(=O)[*:2])c(N)c1=O; NMeF = CN[CH](Cc1ccccc1)C(=O)O; Sar = CNCC(=O)O

The values that follow come from PubChem BioAssay (NCI).

`O=C(/C=C\c1ccccc1)N1CCc2ccccc2C1`: the TGI in [1], in [2], in [3], in [4], in assay [5] and in [6] was more than 100 µM in each case. The TGI is more than 100 µM in [7], more than 100 µM in assay [8] and 52.4 µM in assay [9].
On to `CS(=O)(=O)N(c1cc(-c2ccc3ncnc(Nc4cccc(Cl)c4)c3c2)cnc1Cl)S(C)(=O)=O`, for which the GI50 is 0.925 µM in assay [2]; 0.316 µM in assay [3]; 0.506 µM in assay [4]; 0.181 µM in [10]; 0.0685 µM in assay [5]; 0.742 µM in assay [6]. The GI50 in assay [7] was 1.21 µM; in [8] it was 1.5 µM; in assay [9], 0.522 µM. In addition, the TGI in assay [2] was found to be 6.21 µM; in assay [3] it was 1.81 µM; in assay [4], 6.76 µM; in [10] it was 6.55 µM; in assay [5], 0.388 µM; in [6], 13.4 µM. Also, the TGI in assay [7] was 4.72 µM; in assay [8], 12.4 µM; in assay [9], 3.62 µM.
As for `CCN(CC)c1ccc(/C=C/C=C2\NC(=O)NC2=O)cc1`, the GI50 in assay [2] was 10.5 µM; in assay [3], 7.6 µM; in assay [4] it was 2.93 µM; in assay [10] it was 11.1 µM; in assay [5], 1.26 µM; in assay [6] it was 3.77 µM. The GI50 in assay [7] is 1.85 µM; in assay [8] it was 1.12 µM; in assay [9], 2.68 µM. The TGI in [2] is more than 100 µM; in [3], more than 100 µM; in assay [4], 34.2 µM; in assay [10], 98.4 µM; in assay [5], 6.55 µM; in assay [6], more than 100 µM. The TGI in assay [7] was 21.3 µM; in assay [8], 28.5 µM; in [9], 32.4 µM.
On to `O=C1C(Cl)=C(Nc2cccc(C(F)(F)F)c2)C(=O)N1Cc1ccc(Cl)cc1`, for which the GI50 is 6.59 µM in assay [1]; 0.207 µM in [2]; 3.78 µM in assay [3]; less than 0.0324 µM in assay [4]; 2.2 µM in assay [10]; 0.73 µM in [5]. Moreover, the GI50 in assay [6] is 0.0609 µM; in assay [7] it was 2.35 µM; in assay [8] it was less than 0.0431 µM. The TGI in [1] turned out to be 22.2 µM; in assay [2], 8.74 µM; in assay [3], 20.8 µM; in assay [4], 13.5 µM; in [10], 23.5 µM; in [5] it was 15.7 µM. Besides, the figures for the TGI in assay [6], in [7] and in [8] were 16.9 µM, 19.6 µM and 12.3 µM, respectively.
In the case of `COC(=O)C(C)NC(=O)c1ccccc1I(OS(=O)(=O)C(F)(F)F)c1ccccc1` (stereo not given), the GI50 in assay [1] was 42.6 µM; in [2], 15.6 µM; in assay [3], 23.6 µM; in assay [4] it was 25 µM; in [10], 16.9 µM; in assay [6] it was 20.9 µM. Besides, the GI50 in [7] is 17.7 µM; in [8], 20.1 µM; in [9], 3 µM. Also, the TGI in assay [1] is more than 100 µM; in assay [2], 34.5 µM; in assay [3] it was 56.5 µM; in assay [4] it was 51 µM; in assay [10], 36.7 µM; in assay [6], 44 µM. Moreover, the TGI amounted to 38.7 µM in assay [7], 42.9 µM in assay [8] and 25.8 µM in [9].
As for `CC1=NN(c2nc(N)nc(/C=C\c3ccc([N+](=O)[O-])s3)n2)C(C)(C)C1`, the GI50 in assay [1], in assay [2], in assay [3], in assay [4], in assay [10] and in assay [6] was more than 100 µM each time. Further, the GI50 in assay [7], in assay [8] and in assay [9] was more than 100 µM each time. Moreover, the TGI in [1], in assay [2], in assay [3], in assay [4], in assay [10] and in assay [6] was more than 100 µM in each case. The TGI in [7], in assay [8] and in [9] was more than 100 µM in each case.
With `O=C(O)c1cc2ccccc2c2c1C(=O)c1ccccc1-2`, the TGI in assay [1], in assay [2], in assay [3], in assay [4], in assay [10] and in assay [6] was more than 100 µM each time. Besides, the TGI in assay [7], in assay [8] and in [9] was more than 100 µM in each case.
On to `COc1ccc2ccc3oc([N+](=O)[O-])cc3c2c1`, for which the GI50 in assay [2] is 0.208 µM; in assay [3] it was 0.206 µM; in assay [4] it was 0.316 µM; in assay [10], 0.386 µM; in assay [5], 0.126 µM; in assay [6], 0.236 µM. Moreover, the GI50 is 0.417 µM in assay [7], 0.251 µM in assay [8] and 0.333 µM in assay [9]. The TGI in assay [2] came out at 0.723 µM; in [3] it was 0.894 µM; in assay [4], 1.1 µM; in [10], 7.68 µM; in [5], 0.301 µM; in [6], 2.14 µM. For the same compound, the TGI in assay [7] was determined as 2.09 µM; in assay [8], 2.22 µM; in [9] it was 5.92 µM.
With `Cc1c2oc3c(C)ccc(C(=O)NC4C(=O)NC(C(C)C)C(=O)N5CCCC5C(=O)N(C)CC(=O)N(C)C(Cc5ccccc5)C(=O)OC4C)c3nc-2c(C(=O)NC2C(=O)NC(C(C)C)C(=O)N3CCCC3C(=O)N(C)CC(=O)N(C)C(Cc3ccccc3)C(=O)OC2C)c(N)c1=O` (stereo not given) (I: TVP[Sar][NMeF] / II: TVP[Sar][NMeF]; ester I:1-I:C, II:1-II:C; linker I:N-II:N via Actinocin(9to1); configuration not given here), the GI50 in [2] was < 0.01 µM and 0.0317 µM; in assay [4], < 0.01 µM and 0.00327 µM; in [10] it was < 0.01 µM and 0.0335 µM. The TGI in [4] is more than 1 µM; in assay [10] it was 2.01 µM and > 0.41 µM; in assay [5], < 0.01 µM and 0.0378 µM; in [6] it was 1.27 µM and 0.139 µM; in [8] it was more than 1 µM; in assay [9], more than 1 µM.
